Drawing on PubChem BioAssay (NCI), this text covers TGI for 13 molecules.

Among the test systems are ACHN renal; CAKI-1 renal; EKVX NSCLC; NCI-H226 lung; OVCAR-8 ovarian; SF-268 CNS; SK-MEL-5 melanoma; SK-OV-3 ovarian; SNB-75 CNS; UACC-257 melanoma.
Holding throughout (test): inhibition of tumour cell growth, NCI panel, 48 h

Molecules are shown by their SMILES.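 Results reflect a 48-hour exposure of cells in 96-well plates to compound at five concentrations. At the TGI there is no net growth.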

As to `COc1ccc(-n2cnc3c(NC(CCSC)C(=O)O)ncnc32)cc1` (stereo not given), the TGI in the test on ACHN renal, in the test with CAKI-1 renal, in the test with EKVX NSCLC, in the test on NCI-H226 lung, with OVCAR-8 ovarian and in the test on SF-268 CNS was above 100 µM in each case. For the same molecule, the TGI in the test on SK-MEL-5 melanoma, in the test on SK-OV-3 ovarian, with SNB-75 CNS and with UACC-257 melanoma was above 100 µM in each case.
For the molecule `O=c1onc2c3ccccc3ncn12`, the TGI with ACHN renal, in the test on CAKI-1 renal, in the test with EKVX NSCLC, in the test on NCI-H226 lung, in the test with OVCAR-8 ovarian and in the test with SF-268 CNS was above 100 µM each time. The TGI in the test with SK-MEL-5 melanoma, with SK-OV-3 ovarian, in the test on SNB-75 CNS and with UACC-257 melanoma was above 100 µM throughout.
As to `COc1ccc(C(=O)c2[nH]c(Nc3ccc(Cl)cc3)c(C(=S)Nc3ccccc3)c2N)cc1`, the TGI with ACHN renal, with CAKI-1 renal, in the test with EKVX NSCLC, with NCI-H226 lung, in the test on OVCAR-8 ovarian and in the test on SF-268 CNS was above 100 µM throughout. Further, the TGI with SK-MEL-5 melanoma, with SK-OV-3 ovarian, with SNB-75 CNS and in the test with UACC-257 melanoma was above 100 µM in each case.
As to `C#CCOCC12C=CC(O1)C1C(=O)OCC12` (stereo not given), the TGI with ACHN renal, with CAKI-1 renal, in the test with EKVX NSCLC, with NCI-H226 lung, in the test with OVCAR-8 ovarian and in the test with SF-268 CNS was above 100 µM in each case. Also, the TGI with SK-MEL-5 melanoma, in the test on SK-OV-3 ovarian, in the test with SNB-75 CNS and with UACC-257 melanoma was above 100 µM in each case.
Turning to `Cc1cc(O)c(C(C)C)cc1C1(c2cc(C(C)C)c(O)cc2C)OC(=O)c2ccccc21`, the TGI in the test on ACHN renal came to 8.99 µM; in the test on CAKI-1 renal, 18.4 µM; in the test with EKVX NSCLC, 9.25 µM; in the test with NCI-H226 lung, 6.3 µM; in the test on OVCAR-8 ovarian, 9.14 µM; in the test with SF-268 CNS, 4.83 µM. Besides, the TGI was 2.99 µM in the test on SK-MEL-5 melanoma, above 33.3 µM in the test with SK-OV-3 ovarian, 6.16 µM with SNB-75 CNS and 3.6 µM in the test on UACC-257 melanoma.
Regarding `Nc1ccc(C(=O)NN2C(=O)C(Cl)C2c2ccccc2)cc1` (stereo not given), the TGI in the test on ACHN renal, in the test on CAKI-1 renal, in the test with EKVX NSCLC, in the test on NCI-H226 lung, with OVCAR-8 ovarian and in the test on SF-268 CNS was above 100 µM each time. Moreover, the TGI with SK-MEL-5 melanoma, with SK-OV-3 ovarian, in the test on SNB-75 CNS and with UACC-257 melanoma was above 100 µM each time.
With `Fc1ccccc1C1SCc2nc3cc4ccccc4cc3n21` (stereo not given), the TGI in the test on ACHN renal, in the test on CAKI-1 renal, in the test on EKVX NSCLC, in the test on NCI-H226 lung, with OVCAR-8 ovarian and with SF-268 CNS was above 100 µM each time. In addition, the TGI in the test on SK-MEL-5 melanoma, in the test on SK-OV-3 ovarian, in the test on SNB-75 CNS and with UACC-257 melanoma was above 100 µM in each case.
With `CC1OC(OC2C(OC(=O)[C@@H]3CC(C)(C)C[C@H]4C5=CC[C@@H]6[C@@]7(C)C[C@H](O)[C@H](OC8OC(CO)C(O)C(O)C8O)[C@@](C)(CO)[C@@H]7[C@H](O)C[C@@]6(C)[C@]5(C)CC[C@@]34C)OCC(O)C2O)C(O)C(O)C1O` (stereo not given in full), the TGI with ACHN renal, in the test with CAKI-1 renal, with EKVX NSCLC, in the test with NCI-H226 lung, in the test on OVCAR-8 ovarian and with SF-268 CNS was above 7.5 µM in each case. Further, the TGI in the test on SK-MEL-5 melanoma, in the test on SK-OV-3 ovarian, with SNB-75 CNS and with UACC-257 melanoma was above 7.5 µM in each case.
`OC(c1ccc(-c2ccccc2)cc1)C(F)(F)c1nc2ccccc2o1` (stereo not given): the TGI is above 100 µM in the test on ACHN renal; 61.2 µM in the test on CAKI-1 renal; above 100 µM in the test with EKVX NSCLC; above 100 µM in the test with NCI-H226 lung; above 93.1 µM in the test with OVCAR-8 ovarian; above 100 µM in the test with SF-268 CNS. Also, the TGI with SK-MEL-5 melanoma, with SK-OV-3 ovarian, in the test on SNB-75 CNS and in the test on UACC-257 melanoma was above 100 µM each time.
Turning to `[N-]=[N+]=C1C(=O)C2CC3CC(C2)CC1C3`, the TGI in the test with ACHN renal, in the test on CAKI-1 renal, in the test with EKVX NSCLC, with NCI-H226 lung, in the test on OVCAR-8 ovarian and in the test on SF-268 CNS was above 100 µM throughout. Moreover, the TGI with SK-MEL-5 melanoma, in the test on SK-OV-3 ovarian, with SNB-75 CNS and with UACC-257 melanoma was above 100 µM in each case.
For `O=C(O)CNC(=O)c1c2ccccc2nc2ccccc12`, the TGI in the test on ACHN renal, in the test with CAKI-1 renal, in the test on EKVX NSCLC, with NCI-H226 lung, with OVCAR-8 ovarian and in the test on SF-268 CNS was above 100 µM throughout. Besides, the TGI in the test with SK-MEL-5 melanoma, in the test with SK-OV-3 ovarian, in the test with SNB-75 CNS and in the test with UACC-257 melanoma was above 100 µM throughout.
Take `CC(C)C1=CC23CCC4C(C)(C(=O)O)CCCC4(C)C2CC1C1C(=O)N(c2ccc(C(=O)O)cc2)C(=O)C13` (stereo not given): the TGI in the test with ACHN renal, in the test on CAKI-1 renal, with EKVX NSCLC, in the test on NCI-H226 lung, in the test with OVCAR-8 ovarian and with SF-268 CNS was above 100 µM in each case. Besides, the TGI with SK-MEL-5 melanoma, in the test on SK-OV-3 ovarian, with SNB-75 CNS and in the test with UACC-257 melanoma was above 100 µM each time.
Take `CSCCC(NC(=O)Cc1ccc(C(=O)c2ccccc2)cc1)C(=O)O` (stereo not given): the TGI in the test with ACHN renal, with CAKI-1 renal, in the test with EKVX NSCLC, with NCI-H226 lung, with OVCAR-8 ovarian and with SF-268 CNS was above 100 µM throughout. Moreover, the TGI in the test with SK-MEL-5 melanoma, with SK-OV-3 ovarian, with SNB-75 CNS and with UACC-257 melanoma was above 100 µM in each case.
